According to BigSolDB 2.1:

CC1(C)[C@H](C(=O)O)N2C(=O)[C@@H](NC(=O)Cc3ccccc3)[C@H]2S1=O (stereo partly drawn)
Details	solubility (mole fraction)
in MIBK, 278.15 K	0.00173
in MIBK, 287.85 K	0.00184
in MIBK, 295.15 K	0.00201
in MIBK, 297.95 K	0.00213
in MIBK, 303.35 K	0.00227
in MIBK, 308.05 K	0.00238
in MIBK, 313.35 K	0.00262
in MIBK, 317.65 K	0.00278
in MIBK, 323.75 K	0.00316
in ethyl acetate, 273.15 K	0.00211
in ethyl acetate, 278.15 K	0.00222
in ethyl acetate, 283.25 K	0.00227
in ethyl acetate, 288.15 K	0.00233
in ethyl acetate, 292.75 K	0.00256
in ethyl acetate, 298.55 K	0.0028
in ethyl acetate, 303.15 K	0.00316
in ethyl acetate, 307.45 K	0.00338
in ethyl acetate, 312.85 K	0.00383
in ethyl acetate, 317.65 K	0.0044
in ethyl acetate, 321.25 K	0.00486
in n-butyl acetate, 273.15 K	0.000603
in n-butyl acetate, 278.25 K	0.000678
in n-butyl acetate, 281.95 K	0.000735
in n-butyl acetate, 287.65 K	0.000825
in n-butyl acetate, 292.55 K	0.000979
in n-butyl acetate, 297.35 K	0.0011
in n-butyl acetate, 302.95 K	0.00134
in n-butyl acetate, 307.65 K	0.00151
in n-butyl acetate, 312.65 K	0.00166
in n-butyl acetate, 317.65 K	0.00192
in toluene, 283.15 K	2.74e-05
in toluene, 288.35 K	3.68e-05
in toluene, 293.95 K	5.26e-05
in toluene, 298.15 K	6.12e-05
in toluene, 303.45 K	6.97e-05
in toluene, 311.65 K	8.7e-05
in toluene, 316.85 K	0.000105
in toluene, 323.65 K	0.000113
